Literature values, collected in patent US7488791B2, “Mixture of peptides derived from E6 and/or E7 papillomavirus proteins and uses thereof” (priority 2001, dated 2009).
Read-outs that look alike come from different tables or passages of the source.

What was measured:
cells from patients [1] = settings: Nakagawa et al., cited from earlier work; for Proliferation of cells from patients, responders/tested, normal: normal individuals
cells from patients [2] = settings: cited from earlier work; for Proliferation of cells from patients infected with HPV, responders/tested: De Gruijl et al.
cells from patients [3] = settings: Kadish et al.; cited from earlier work
cells in the blood = settings: Tsukui et al., 140 HPV16+ patients; cited from earlier work
[4] = system: E7-specific T lymphocyte lines; settings: Altmann et al.; cited from earlier work
cells from patients [5] = settings: Luxton et al., cited from earlier work; for Proliferation of cells from patients, responders/tested, normal: normal individuals

## E7: 44-57: HPV16 E7 peptide, positions 44-57, Nakagawa et al. (QAEPDRAHYNIVTF; UniProt P03129 44-57, looked up, fragment)
Cells from patients [1]
  Proliferation of cells from patients, responders/tested, CIN: 3/22
  Proliferation of cells from patients, responders/tested, normal: 9/65

## E7: 1-32: HPV16 E7 peptide, positions 1-32, De Gruijl et al.
Cells from patients [2]
  Proliferation of cells from patients infected with HPV, responders/tested: 8/28

## E6: 109-122: HPV16 E6 peptide, positions 109-122, Nakagawa et al. (RCINCQKPLCPEEK; UniProt P03126 109-122, looked up, fragment)
Cells from patients [1]
  Proliferation of cells from patients, responders/tested, CIN: 1/22
  Proliferation of cells from patients, responders/tested, normal: 8/65

## E7: 62-80: HPV16 E7 peptide, positions 62-80, Kadish et al. (DSTLRLCVQSTHVDIRTLE; UniProt P03129 62-80, looked up, fragment)
Cells from patients [3]
  Proliferation of cells from patients (CIN or normal), responders/tested: 11/35

## E6: 22-51: HPV16 E6 peptide, positions 22-51, Kadish et al. (LCTELQTTIHDIILECVYCKQQLLRREVYD; UniProt P03126 22-51, looked up, fragment)
Cells from patients [3]
  Proliferation of cells from patients (CIN or normal), responders/tested: 17/46

## E7: 51-98: HPV16 E7 peptide, positions 51-98, Tsukui et al. (HYNIVTFCCKCDSTLRLCVQSTHVDIRTLEDLLMGTLGIVCPICSQKP; UniProt P03129 51-98, looked up, fragment)
Cells in the blood
  Secretion of IL2 (activation of cells) by patients, responders/tested: 7/140

## E6: 1-31: HPV16 E6 peptide, positions 1-31, Kadish et al. (MHQKRTAMFQDPQERPRKLPQLCTELQTTIH; UniProt P03126 1-31, looked up, fragment)
Cells from patients [3]
  Proliferation of cells from patients (CIN or normal), responders/tested: 17/48

## E7: 1-35: HPV16 E7 peptide, positions 1-35, Tsukui et al.
Cells in the blood
  Secretion of IL2 (activation of cells) by patients, responders/tested: 3/140

## E7: 62-79: HPV16 E7 peptide, positions 62-79, Nakagawa et al. (DSTLRLCVQSTHVDIRTL; UniProt P03129 62-79, looked up, fragment)
Cells from patients [1]
  Proliferation of cells from patients, responders/tested, CIN: 3/22
  Proliferation of cells from patients, responders/tested, normal: 10/65

## E7: 5-18: HPV16 E7 peptide, positions 5-18, Altmann et al. (TPTLHEYMLDLQPE; UniProt P03129 5-18, looked up, fragment)
[4]
  Recognition by T lymphocyte line or clone from a patient: Recognized by line from a DR1

## E6: 117-131: HPV16 E6 peptide, positions 117-131, Kadish et al. (LCPEEKQRHLDKKQR; UniProt P03126 117-131, looked up, fragment)
Cells from patients [3]
  Proliferation of cells from patients (CIN or normal), responders/tested: 12/23

## E7: 67-98: HPV16 E7 peptide, positions 67-98, De Gruijl et al. (LCVQSTHVDIRTLEDLLMGTLGIVCPICSQKP; UniProt P03129 67-98, looked up, fragment)
Cells from patients [2]
  Proliferation of cells from patients infected with HPV, responders/tested: 17/28
Cells from patients [2]; de Gruijl et al.
  Stimulation of the cells of patients, in words: stimulates the cells of a majority of patients

## CC[C@H](C)[C@H](NC(=O)[C@@H](NC(=O)[C@@H](NC(=O)[C@H](CCC(N)=O)NC(=O)[C@H](CC(C)C)NC(=O)[C@H](CCC(=O)O)NC(=O)[C@@H](NC(=O)[C@H](CS)NC(=O)[C@H](CC(C)C)NC(=O)[C@H](CCC(N)=O)NC(=O)[C@@H]1CCCN1C(=O)[C@H](CC(C)C)NC(=O)[C@H](CCCCN)NC(=O)[C@@H](N)CCCNC(=N)N)[C@@H](C)O)[C@@H](C)O)[C@@H](C)O)C(=O)N[C@@H](Cc1c[nH]cn1)C(=O)O [E6 17-31, R K L P Q L C T E L Q T T I H]
Cells from patients [3]
  Proliferation of cells from patients (CIN or normal), responders/tested: 12/23

## E7: 19-56: HPV16 E7 peptide, positions 19-56, De Gruijl et al. (TTDLYCYEQLNDSSEEEDEIDGPAGQAEPDRAHYNIVT; UniProt P03129 19-56, looked up, fragment)
Cells from patients [2]
  Proliferation of cells from patients infected with HPV, responders/tested: 10/28

## E6: 42-71: HPV16 E6 peptide, positions 42-71, Kadish et al. (QQLLRREVYDFAFRDLCIVYRDGNPYAVCD; UniProt P03126 42-71, looked up, fragment)
Cells from patients [3]
  Proliferation of cells from patients (CIN or normal), responders/tested: 8/43

## E7: 25-49: HPV16 E7 peptide, positions 25-49, Luxton et al. (YEQLNDSSEEEDEIDGPAGQAEPDR; UniProt P03129 25-49, looked up, fragment)
Cells from patients [5]
  Proliferation of cells from patients, responders/tested, CIN: 3/31 CIN

## E7: 69-82: HPV16 E7 peptide, positions 69-82, Altmann et al. (VQSTHVDIRTLEDL; UniProt P03129 69-82, looked up, fragment)
[4]
  Recognition by T lymphocyte line or clone from a patient: Recognized by clone from a DR4

## E6: 1-45: HPV16 E6 peptide, positions 1-45, Tsukui et al. (MHQKRTAMFQDPQERPRKLPQLCTELQTTIHDIILECVYCKQQLL; UniProt P03126 1-45, looked up, fragment)
Cells in the blood
  Secretion of IL2 (activation of cells) by patients, responders/tested: 0/140

## E7: 72-97: HPV16 E7 peptide, positions 72-97, Kadish et al. (THVDIRTLEDLLMGTLGIVCPICSQK; UniProt P03129 72-97, looked up, fragment)
Cells from patients [3]
  Proliferation of cells from patients (CIN or normal), responders/tested: 19/48

## E6: 137-151: HPV16 E6 peptide, positions 137-151, Kadish et al. (GRWTGRCMSCCRSSR; UniProt P03126 137-151, looked up, fragment)
Cells from patients [3]
  Proliferation of cells from patients (CIN or normal), responders/tested: 9/23

## E6: 122-151: HPV16 E6 peptide, positions 122-151, Kadish et al. (KQRHLDKKQRFHNIRGRWTGRCMSCCRSSR; UniProt P03126 122-151, looked up, fragment)
Cells from patients [3]
  Proliferation of cells from patients (CIN or normal), responders/tested: 19/48

## E6: 62-91: HPV16 E6 peptide, positions 62-91, Kadish et al. (RDGNPYAVCDKCLKFYSKISEYRHYCYSLY; UniProt P03126 62-91, looked up, fragment)
Cells from patients [3]
  Proliferation of cells from patients (CIN or normal), responders/tested: 0/30

## E6: 82-111: HPV16 E6 peptide, positions 82-111, Kadish et al. (EYRHYCYSLYGTTLEQQYNKPLCDLLIRCI; UniProt P03126 82-111, looked up, fragment)
Cells from patients [3]
  Proliferation of cells from patients (CIN or normal), responders/tested: 5/34

## E7: 21-30: HPV16 E7 peptide, positions 21-30, Nakagawa et al. (DLYCYEQLND; UniProt P03129 21-30, looked up, fragment)
Cells from patients [1]
  Proliferation of cells from patients, responders/tested, CIN: 0/22
  Proliferation of cells from patients, responders/tested, normal: 5/65

## E7: 20-34: HPV16 E7 peptide, positions 20-34, Luxton et al. (TDLYCYEQLNDSSEE; UniProt P03129 20-34, looked up, fragment)
Cells from patients [5]
  Proliferation of cells from patients, responders/tested, CIN: 0/31
  Proliferation of cells from patients, responders/tested, normal: 0/15

## E6: 59-112: HPV16 E6 peptide, positions 59-112, Tsukui et al. (IVYRDGNPYAVCDKCLKFYSKISEYRHYCYSLYGTTLEQQYNKPLCDLLIRCIN; UniProt P03126 59-112, looked up, fragment)
Cells in the blood
  Secretion of IL2 (activation of cells) by patients, responders/tested: 6/140

## E6: 4-29: HPV16 E6 peptide, positions 4-29, Nakagawa et al. (KRTAMFQDPQERPRKLPQLCTELQTT; UniProt P03126 4-29, looked up, fragment)
Cells from patients [1]
  Proliferation of cells from patients, responders/tested, CIN: 3/22
  Proliferation of cells from patients, responders/tested, normal: 12/65

## E7: 27-60: HPV16 E7 peptide, positions 27-60, Tsukui et al. (QLNDSSEEEDEIDGPAGQAEPDRAHYNIVTFCCK; UniProt P03129 27-60, looked up, fragment)
Cells in the blood
  Secretion of IL2 (activation of cells) by patients, responders/tested: 4/140

## E7: 70-98: HPV16 E7 peptide, positions 70-98, Luxton et al. (QSTHVDIRTLEDLLMGTLGIVCPICSQKP; UniProt P03129 70-98, looked up, fragment)
Cells from patients [5]
  Proliferation of cells from patients, responders/tested, CIN: 4/31
  Proliferation of cells from patients, responders/tested, normal: 7/15

## E7: 45-64: HPV16 E7 peptide, positions 45-64, Luxton et al. (AEPDRAHYNIVTFCCKCDST; UniProt P03129 45-64, looked up, fragment)
Cells from patients [5]
  Proliferation of cells from patients, responders/tested, CIN: 2/31
  Proliferation of cells from patients, responders/tested, normal: 1/15

## E6: 102-131: HPV16 E6 peptide, positions 102-131, Kadish et al. (PLCDLLIRCINCQKPLCPEEKQRHLDKKQR; UniProt P03126 102-131, looked up, fragment)
Cells from patients [3]
  Proliferation of cells from patients (CIN or normal), responders/tested: 14/43

## E6: 24-45: HPV16 E6 peptide, positions 24-45, Nakagawa et al. (TELQTTIHDIILECVYCKQQLL; UniProt P03126 24-45, looked up, fragment)
Cells from patients [1]
  Proliferation of cells from patients, responders/tested, CIN: 1/22
  Proliferation of cells from patients, responders/tested, normal: 15/65

## E6: 111-158: HPV16 E6 peptide, positions 111-158, Tsukui et al. (INCQKPLCPEEKQRHLDKKQRFHNIRGRWTGRCMSCCRSSRTRRETQL; UniProt P03126 111-158, looked up, fragment)
Cells in the blood
  Secretion of IL2 (activation of cells) by patients, responders/tested: 11/140

## E7: 43-80: HPV16 E7 peptide, positions 43-80, De Gruijl et al. (GQAEPDRAHYNIVTFCCKCDSTLRLCVQSTHVDIRTLE; UniProt P03129 43-80, looked up, fragment)
Cells from patients [2]
  Proliferation of cells from patients infected with HPV, responders/tested: 10/28

## E7: 30-44: HPV16 E7 peptide, positions 30-44, Luxton et al. (DSSEEEDEIDGPAGQ; UniProt P03129 30-44, looked up, fragment)
Cells from patients [5]
  Proliferation of cells from patients, responders/tested, normal: 2/31 normal
